This note sets out measurements from patent US6617338B2, “Orally administrable acid stable antiulcer benzimidazole derivatives” (priority 2000, dated 2003).

This assay relates to pylorus ligated rats. The experiment in a line: Pylorus ligated rats: total acid output and ulcer index. It counts as in vivo, Wistar albino rats. The conditions noted are these: 0.4 mg/kg × 1 day p.o., mean ± SEM. From the text: The distribution of animals in groups, the sequence of trials and the treatment allotted to each group were randomized. Gastric ulceration was produced by pylorus ligation and absolute ethanol administration. In these methods, animals were fasted for 36 hrs before the experiment. Coprohagy was prevented by fasting the animals in cages with grating as the floor. […] The animals were sacrificed using anaesthetic ether after the completion of experiments; the stomachs were removed, opened along the greater curvature, washed with saline and examined with 6.4* (cm diameter) binocular magnifier. Lesions were assessed by two observers unaware of the experimental protocol. […] They were administered per orally, 30 minutes after the drug treatment the animals were subjected to any ulcerogenic procedure. Rats were anesthetized with anaesthetic ether and the portion of abdomen was opened by a small midline incision below the xiphoid process. Pylorus portion of the stomach was lifted and ligated. […] The stomach was isolated from the body and its contents were collected, measured and centrifuged. […] Immediately after the removal of the contents from the stomach, they were examined for lesions in the stomach portion which were measured and expressed in terms of ulcer index calculated as the total ulcerated area divided by the total mucosal area.

The substance “5-methoxy-2[(4-methoxy-3,5-dimethyl-2-pyridinyl)sulfinyl]-1H-benzimidazole [Omeprazole]” yielded a Total acid output (pylorus ligation 19 hours) of 72.93 ± 7.17 meq/L/100 g. This substance also returned a Ulcer index (total ulcerated area divided by total mucosal area) of 0.88 ± 0.10.
